Data on 17 compounds can be found in US9289503B2, “Fatty acid fumarate derivatives and their uses” (Catabasis Pharmaceuticals, Inc., priority 2010, dated 2016).

Structures can show the parent of a compound that is named as a salt. A value given as a limit tells only on which side of the number the result lay.

For the first experiment, the system named is Hmox1. Description: Hmox1 target gene expression in RAW264.7 macrophages. Particulars: RAW264.7; 50 μM and 100 μM; FIG. 4. The class given is cell-based. How it is done:
RAW264.7 macrophages are seeded at a density of 100,000 cells/well in a 96-well plate in DMEM supplemented with 10% FBS and Penn/strep. 16 hours later, medium is aspirated and replaced with 90 μl/well of serum-free DMEM. A fatty acid fumarate conjugate, DHA and EPA are brought up in 100% EtOH to a concentration of 100 mM and then diluted 1:100 In 100% FBS for a 20× stock solution consisting of 1 mM compound and 1% EtOH. The fatty acid fumarate conjugate 20× stock solutions are diluted 1:2 in FBS supplemented with 1% EtOH for a 500 uM 10× stock solution, whereas equal volumes of the DHA and EPA 20× stock solutions are mixed to create a 10× stock solution containing 500 μm each of DHA and EPA. […] The compounds are allowed to pre-incubate for 2 hours before stimulation of 100 ng/ml LPS (10 μl of 1 μg/ml LPS is added to each well). Following 3 hours of LPS stimulation, cells are washed once in 1× PBS, aspirated dry, and flash frozen in liquid nitrogen. RNA is then isolated and converted to cDNA using the Cells to cDNA kit (Ambion) according to the manufacturer's protocol. Transcript levels are then measured using ABI Taqman primer/probe assay kits, normalized to GAPDH using the deltaCt method, and the data expressed relative to vehicle only control.
Regarding `COC(=O)/C=C/C(=O)NCCNC(=O)CCCC[C@@H]1CCSS1` [Compound I-105, (R,E)-methyl 4-(2-(5-(1,2-dithiolan-3-yl)pentanamido)ethylamino)-4-oxobut-2-enoate], the “effect on the target gene Hmox1” value was “positive effect”.

The next experiment has as its system NF-κB. Description: NF-κB luciferase reporter assay in RAW 264.7 macrophages. In kind it is cell-based. Particulars: Mus musculus, RAW264.7; RAW 264.7 cells with 3× NFκB response element luciferase reporter; 2 hour pretreatment, 200 ng/ml LPS for 3 hours; read-out: NF-kB inhibitory activity. On the procedure: RAW 264.7 cells stably expressing a 3× NFκB response elemement-drive luciferase reporter were seeded into 96 well plates in sera-free medium (Optimem) 18 hours prior to compound application. Compounds of the invention were prepared by first making […] stock solutions in EtOH. Stock solutions were then diluted 1:100 in low LPS FBS (Gemini BenchMark 100-106), mixed vigorously and allowed to incubate at room temperature for 30 minutes, 1:2 serial dilutions were then made in FBS supplemented with 1% EtOH, mixed vigorously, and again allowed to incubate at room temperature for 30 minutes before adding to RAW 264.7 reporter cells (final concentrations: 10% FBS, 100 uM highest compound dilution, 0.1% EtOH) for a 2 hour pretreatment prior to stimulation with LPS. Cells were then stimulated with 200 ng/ml LPS or vehicle control for 3 hours in the presence of the compounds of the invention. A set of six vehicles was left unstimulated with LPS in order to measure the assay floor. AlamarBlue viability dye (Invitrogen) was added to cells simultaneously with the delivery of LPS (final AlamarBlue concentration of 10%). After the 3 h incubation period with LPS, cell viability was measured by reading fluorescence (excitation 550 nm, emission 595 nm) with a Perkin Elmer Victor V plate reader. Then cell media was aspirated from each well. Luciferase signal was then developed by addition of the Britelite Plus reagent (Perkin Elmer). Luciferase activity was measured with the Perkin Elmer Victor V plate reader. NF-κB activity was expressed as a percent of the vehicle control wells (stimulated with LPS). Compounds were tested at 6 dose point titrations in triplicate to determine IC50 values.
Table 1 summarizes the IC50 values for a number of fatty acid fumarate conjugates in this NF-κB luciferase reporter assay. In this table, MMF=mono methyl fumarate.
(A reporter such as luciferase makes a cellular process visible.)
With `CC/C=C\C/C=C\C/C=C\C/C=C\C/C=C\C/C=C\CCC(=O)NCCSSCCNC(=O)/C=C/C(=O)OC` [Compound I-5, (E)-methyl 4-(2-(2-(2-(4Z,7Z,10Z,13Z,16Z,19Z)-docosa-4,7,10,13,16,19-hexaenamidoethyl)disulfanyl)ethylamino)-4-oxobut-2-enoate], the IC50 is 50 to 200 µM.

Consider `CC/C=C\C/C=C\C/C=C\C/C=C\C/C=C\C/C=C\CCC(=O)NCCN1C(=O)CC(SC[C@H](NC(=O)/C=C/C(=O)OC)C(=O)OC)C1=O` (stereo partly drawn) [Compound I-39, (E)-methyl 4-((R)-3-(1-(2-(4Z,7Z,10Z,13Z,16Z,19Z)-docosa-4,7,10,13,16,19-hexaenamidoethyl)-2,5-dioxopyrrolidin-3-ylthio)-1-methoxy-1-oxopropan-2-ylamino)-4-oxobut-2-enoate], for which the IC50 lay within 50 to 200 µM. With `CC/C=C\C/C=C\C/C=C\C/C=C\C/C=C\C/C=C\CCC(=O)N1C[C@@H](C)N(C(=O)/C=C/C(=O)OC)[C@@H](C)C1` [Compound I-41, (E)-methyl 4-((2R,6S)-4-((4Z,7Z,10Z,13Z,16Z,19Z)-docosa-4,7,10,13,16,19-hexaenoyl)-2,6-dimethylpiperazin-1-yl)-4-oxobut-2-enoate], the IC50 was in the range of 50 to 200 µM. Turning to `CC/C=C\C/C=C\C/C=C\C/C=C\C/C=C\C/C=C\CCC(=O)NCCNC(=O)/C=C/C(=O)OCC` [Compound I-66, (E)-ethyl 4-(2-(4Z,7Z,10Z,13Z,16Z,19Z)-docosa-4,7,10,13,16,19-hexaenamidoethylamino)-4-oxobut-2-enoate], the IC50 was 50 to 200 µM. The same measure, in the same setting: with `CC/C=C\C/C=C\C/C=C\C/C=C\C/C=C\CCCC(=O)N[C@@H](CCCCNC(=O)/C=C/C(=O)OC)C(=O)O` [Compound I-72, (S)-2-((5Z,8Z,11Z,14Z,17Z)-icosa-5,8,11,14,17-pentaenamido)-6-((E)-4-methoxy-4-oxobut-2-enamido)hexanoic acid] the figure was 50 to 200 µM.

For the compound `CC/C=C\C/C=C\C/C=C\C/C=C\C/C=C\C/C=C\CCC(=O)NCCNC(=O)/C=C/C(=O)O` [Compound I-102, (E)-4-(2-(4Z,7Z,10Z,13Z,16Z,19Z)-docosa-4,7,10,13,16,19-hexaenamidoethylamino)-4-oxobut-2-enoic acid], the IC50 is at least 100 µM.

As for `CC/C=C\C/C=C\C/C=C\C/C=C\C/C=C\C/C=C\CCC(=O)NCCOC(=O)/C=C/C(=O)OC` [Compound I-103, 2-(4Z,7Z,10Z,13Z,16Z,19Z)-docosa-4,7,10,13,16,19-hexaenamidoethyl methyl fumarate], the IC50 was in the range of 50 to 200 µM.

`CC/C=C\C/C=C\C/C=C\C/C=C\C/C=C\C/C=C\CCC(=O)N(C)CCN(C)C(=O)/C=C/C(=O)OC` [Compound I-104, (E)-methyl 4-(methyl(2-((4Z,7Z,10Z,13Z,16Z,19Z)-N-methyldocosa-4,7,10,13,16,19-hexaenamido)ethyl)amino)-4-oxobut-2-enoate]: the IC50 is at least 100 µM. Same read-out and setting: with `COC(=O)/C=C/C(=O)O` [MMF, mono methyl fumarate, reference compound] the figure was at least 100 µM.

Still in this experiment, the particulars now being: RAW 264.7 cells with 3× NFκB response element luciferase reporter; 2 hour pretreatment, 200 ng/ml LPS for 3 hours.
As for `CC/C=C\C/C=C\C/C=C\C/C=C\C/C=C\CCCC(=O)NCCNC(=O)/C=C/C(=O)OC` [Compound I-2, (E)-methyl 4-(2-(5Z,8Z,11Z,14Z,17Z) -eicosa-5,8,11,14,17-pentaenamidoethylamino)-4-oxobut-2-enoate], the NF-kB inhibitory activity entry is reported as “+ +”. Take `CC/C=C\C/C=C\C/C=C\C/C=C\C/C=C\C/C=C\CCC(=O)NCCOCCNC(=O)/C=C/C(=O)OC` [Compound I-3, (E)-methyl 4-(2-(2-(4Z,7Z,10Z,13Z,16Z,19Z)-docosa-4,7,10,13,16,19-hexaenamidoethoxy)ethylamino)-4-oxobut-2-enoate]: the NF-kB inhibitory activity entry is recorded as “+ +”. Take `CC/C=C\C/C=C\C/C=C\C/C=C\C/C=C\C/C=C\CCC(=O)NCCN(C)CCNC(=O)/C=C/C(=O)OC` [Compound I-4, (E)-methyl 4-(2-((2-(4Z,7Z,10Z,13Z,16Z,19Z)-docosa-4,7,10,13,16,19-hexaenamidoethyl)(methyl)amino)ethylamino)-4-oxobut-2-enoate]: the NF-kB inhibitory activity result is given as “+ +”.

`CC/C=C\C/C=C\C/C=C\C/C=C\C/C=C\C/C=C\CCC(=O)NCCCC[C@H](NC(=O)/C=C/C(=O)OC)C(=O)OC` [Compound I-6, (S)-methyl 6-((4Z,7Z,10Z,13Z,16Z,19Z)-docosa-4,7,10,13,16,19-hexaneamido)-2-((E)-4-methoxy-4-oxobut-2-enamido)hexanoate]: the NF-kB inhibitory activity entry is listed as “+ +”.

Consider `CC/C=C\C/C=C\C/C=C\C/C=C\C/C=C\C/C=C\CCC(=O)NCC(C)(C)NC(=O)/C=C/C(=O)OC` [Compound I-22], for which the NF-kB inhibitory activity entry is given as “+ +”. Still for that read-out and setting: with `CC/C=C\C/C=C\C/C=C\C/C=C\C/C=C\C/C=C\CCC(=O)N1CCN(C(=O)/C=C/C(=O)OC)CC1` [Compound I-40, (E)-methyl 4-(4-(4Z,7Z,10Z,13Z,16Z,19Z)-docosa-4,7,10,13,16,19-hexaenoylpiperazin-1-yl)-4-oxobut-2-enoate] the entry was “+ +”. On the same count and under the same terms, with `CC/C=C\C/C=C\C/C=C\C/C=C\C/C=C\C/C=C\CCC(=O)NCCNC(=O)/C=C/C(=O)OC` [Compound I-67] the entry was “+ +”.

A further experiment has as its system IL-1β. Briefly: IL-1β gene expression in LPS-stimulated RAW264.7 macrophages. Particulars: RAW264.7; 50 μM and 100 μM; FIG. 4. The class given is cell-based. How it is done: RAW264.7 macrophages were seeded at a density of 100,000 cells/well in a 96-well plate in DMEM supplemented with 10% FBS and Penn/strep. 16 hours later, medium was aspirated and replaced with 90 μl/well of serum-free DMEM. A fatty acid fumarate conjugate, DHA and monomethyl-fumarate (MMF) were brought up in 100% EtOH to a concentration of 100 mM and then diluted 1:100 in 100% FBS for a stock solution consisting of 1 mM compound and 1% EtOH. these stock solutions were then diluted 1:10 in FBS supplemented with 1% EtOH to generate a 100 μM of a fatty acid fumarate conjugate and 100 μM each of DHA and MMF. 10 μl was then added to the RAW246.7 cells to generate final concentrations 10 μM of the fatty acid fumarate conjugate or 10 μM each DHA and MMF, along with vehicle only control. […] IL-1β and TNF-α transcript levels were then measured using Taqman primer/probe assay sets (Applied Biosystems), normalized to GAPDH using the deltaCt method, and the data expressed relative to vehicle only control. […]
RAW264.7 macrophages are seeded at a density of 100,000 cells/well in a 96-well plate in DMEM supplemented with 10% FBS and Penn/strep. […] Transcript levels are then measured using ABI Taqman primer/probe assay kits, normalized to GAPDH using the deltaCt method, and the data expressed relative to vehicle only control.
Turning to `COC(=O)/C=C/C(=O)NCCNC(=O)CCCC[C@@H]1CCSS1` [Compound I-105, (R,E)-methyl 4-(2-(5-(1,2-dithiolan-3-yl)pentanamido)ethylamino)-4-oxobut-2-enoate], the “effect on IL-1β target gene expression” value was “positive effect”.
